The record followed here is patent publication US11427548B2 (Arvinas Operations, Inc., priority 2015, dated 2022).

The target in this assay is T1, Androgen Receptor (Homo sapiens, UniProt P10275+P40337, T878A).
T1 construct: Compounds have been evaluated in this assay in LNCaP and/or VCaP cells utilizing similar protocols; endogenous in cells; host or cells: LNCaP cells
Description: Androgen Receptor ELISA assay (PathScan AR ELISA) in LNCaP cells: AR degradation, Dmax and DC50. It counts as cell-based. The conditions noted are these: for DC50: concentration that caused 50% Androgen Receptor degradation. On the technique in general: In an ELISA, binding on a coated surface is turned into a signal by an enzyme label.

Where [1] appears, read: highest percentage of Androgen Receptor degradation observed.
[2] abbreviates: highest percentage of Androgen Receptor degradation.

For orientation: DC50 means the midpoint of the concentration-degradation curve. A high value points to degradation only at high concentration. For orientation: Dmax means the largest share of the target that was removed. Higher therefore signals deep degradation.

T1 sequence (P10275 whole entry T878A): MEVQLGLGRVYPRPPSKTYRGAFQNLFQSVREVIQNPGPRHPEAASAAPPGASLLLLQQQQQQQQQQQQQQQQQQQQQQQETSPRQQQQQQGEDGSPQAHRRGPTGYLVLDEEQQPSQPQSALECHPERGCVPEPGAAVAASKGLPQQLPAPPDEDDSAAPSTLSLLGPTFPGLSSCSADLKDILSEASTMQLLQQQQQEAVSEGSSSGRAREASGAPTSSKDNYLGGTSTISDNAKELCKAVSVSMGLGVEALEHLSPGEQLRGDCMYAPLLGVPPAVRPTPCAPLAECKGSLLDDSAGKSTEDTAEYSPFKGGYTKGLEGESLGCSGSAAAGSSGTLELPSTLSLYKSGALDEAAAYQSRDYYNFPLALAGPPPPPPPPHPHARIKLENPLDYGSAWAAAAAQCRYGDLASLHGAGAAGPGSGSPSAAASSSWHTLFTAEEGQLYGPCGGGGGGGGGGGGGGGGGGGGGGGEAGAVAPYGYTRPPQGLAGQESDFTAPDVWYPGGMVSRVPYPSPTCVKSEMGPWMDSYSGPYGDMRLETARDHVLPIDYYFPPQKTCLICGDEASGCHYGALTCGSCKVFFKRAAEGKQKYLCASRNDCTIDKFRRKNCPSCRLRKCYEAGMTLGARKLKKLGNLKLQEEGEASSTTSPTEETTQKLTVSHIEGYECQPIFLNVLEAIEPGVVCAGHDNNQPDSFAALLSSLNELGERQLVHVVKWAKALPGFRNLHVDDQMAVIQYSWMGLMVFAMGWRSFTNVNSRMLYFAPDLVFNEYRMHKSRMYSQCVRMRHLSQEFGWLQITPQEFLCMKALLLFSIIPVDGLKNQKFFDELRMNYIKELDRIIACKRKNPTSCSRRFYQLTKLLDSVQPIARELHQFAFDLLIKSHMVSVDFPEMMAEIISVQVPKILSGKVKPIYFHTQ
T1 sequence (P40337 whole entry): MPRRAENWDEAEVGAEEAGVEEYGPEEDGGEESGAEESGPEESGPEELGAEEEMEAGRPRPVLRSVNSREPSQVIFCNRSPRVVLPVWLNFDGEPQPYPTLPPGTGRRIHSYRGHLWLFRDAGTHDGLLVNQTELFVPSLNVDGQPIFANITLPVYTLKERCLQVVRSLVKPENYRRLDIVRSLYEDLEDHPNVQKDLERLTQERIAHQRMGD
T1 sequence (Q15369 whole entry partner): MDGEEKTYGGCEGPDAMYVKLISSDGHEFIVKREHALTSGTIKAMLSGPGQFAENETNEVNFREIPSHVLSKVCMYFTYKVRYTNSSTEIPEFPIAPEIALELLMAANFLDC
T1 sequence (Q15370 whole entry partner): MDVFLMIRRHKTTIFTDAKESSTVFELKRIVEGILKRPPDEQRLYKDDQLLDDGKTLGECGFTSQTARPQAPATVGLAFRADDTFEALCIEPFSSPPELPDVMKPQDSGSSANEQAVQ

Turning to `Cc1ncsc1-c1ccc(CNC(=O)[C@@H]2C[C@@H](O)CN2C(=O)[C@@H](NC(=O)COCCCCOCCCCOc2ccc(N3C(=S)N(c4ccc(C#N)c(C(F)(F)F)c4)C(=O)C3(C)C)cc2)C(C)(C)C)cc1` [Example 24, (2S,4R)-1-[(2S)-2-(2-{4-[4-(4-{3-[4-cyano-3-(trifluoromethyl)phenyl]-5,5-dimethyl-4-oxo-2-sulfanylideneimidazolidin-1-yl}phenoxy)butoxy]butoxy}acetamido)-3,3-dimethylbutanoyl]-4-hydroxy-N-{[4-(4-methyl-1,3-thiazol-5-yl)phenyl]methyl}pyrrolidine-2-carboxamide], the half-maximal degradation concentration (DC50) is less than 0.05 µM. Under setting [1], this molecule had a Dmax of more than 71%.
`Cc1ncsc1-c1ccc(CNC(=O)[C@@H]2C[C@@H](O)CN2C(=O)[C@@H](NC(=O)COCCOCCNC(=O)CCCc2ccc(N3C(=S)N(c4ccc(C#N)c(C(F)(F)F)c4)C(=O)C3(C)C)cc2)C(C)(C)C)cc1` [Example 62, (2S,4R)-1-((S)-2-tert-butyl-16-(4-(3-(4-cyano-3-(trifluoromethyl)phenyl)-5,5-dimethyl-4-oxo-2-thioxoimidazolidin-1-yl)phenyl)-4,13-dioxo-6,9-dioxa-3,12-diazahexadecane)-4-hydroxy-N-(4-(4-methylthiazol-5-yl)benzyl)pyrrolidine-2-carboxamide] yielded a DC50 of more than 0.501 µM. The molecule further gave a Dmax under setting [1] of 51 to 70%.
On the same counts, the results for `Cc1ncsc1-c1ccc(CNC(=O)[C@@H]2C[C@@H](O)CN2C(=O)[C@@H](NC(=O)COCCOCCN(C)C(=O)CCCc2ccc(N3C(=S)N(c4ccc(C#N)c(C(F)(F)F)c4)C(=O)C3(C)C)cc2)C(C)(C)C)cc1` [Example 64, (2S,4R)-1-[(2S)-2-[2-(2-{2-[4-(4-{3-[4-cyano-3-(trifluoromethyl)phenyl]-5,5-dimethyl-4-oxo-2-sulfanylideneimidazolidin-1-yl}phenyl)-N-methylbutanamido]ethoxy}ethoxy)acetamido]-3,3-dimethylbutanoyl]-4-hydroxy-N-{[4-(4-methyl-1,3-thiazol-5-yl)phenyl]methyl}pyrrolidine-2-carboxamide] are 0.051 to 0.5 µM and 51 to 70%.
In turn, `Cc1ncsc1-c1ccc(CNC(=O)[C@@H]2C[C@@H](O)CN2C(=O)[C@@H](NC(=O)CCOCCOCCOc2ccc(-c3ccc(N4C(=S)N(c5ccc(C#N)c(C(F)(F)F)c5)C(=O)C4(C)C)cc3)cc2)C(C)(C)C)cc1` [Example 68, (2S,4R)-1-[(2S)-2-[3-(2-{2-[4-(4-{3-[4-cyano-3-(trifluoromethyl)phenyl]-5,5-dimethyl-4-oxo-2-sulfanylideneimidazolidin-1-yl}phenyl)phenoxy]ethoxy}ethoxy)propanamido]-3,3-dimethylbutanoyl]-4-hydroxy-N-{[4-(4-methyl-1,3-thiazol-5-yl)phenyl]methyl}pyrrolidine-2-carboxamide] had a DC50 of 0.051 to 0.5 µM. Moreover, under setting [1], the Dmax was 26 to 50%.
The molecule `Cc1ncsc1-c1ccc(CNC(=O)[C@@H]2C[C@@H](O)CN2C(=O)[C@@H](NC(=O)CCOCCCCCOc2ccc(-c3ccc(N4C(=S)N(c5ccc(C#N)c(C(F)(F)F)c5)C(=O)C4(C)C)cc3)cc2)C(C)(C)C)cc1` [Example 72, (2S,4R)-1-[(2S)-2-[3-({5-[4-(4-{3-[4-cyano-3-(trifluoromethyl)phenyl]-5,5-dimethyl-4-oxo-2-sulfanylideneimidazolidin-1-yl}phenyl)phenoxy]pentyl}oxy)propanamido]-3,3-dimethylbutanoyl]-4-hydroxy-N-{[4-(4-methyl-1,3-thiazol-5-yl)phenyl]methyl}pyrrolidine-2-carboxamide] yielded a DC50 of 0.051 to 0.5 µM. In addition, the Dmax under setting [1] is more than 71%.
For the molecule `Cc1ncsc1-c1ccc(CNC(=O)[C@@H]2C[C@@H](O)CN2C(=O)[C@@H](NC(=O)OCCOCCOc2ccc(-c3ccc(N4C(=S)N(c5ccc(C#N)c(C(F)(F)F)c5)C(=O)C4(C)C)cc3F)cc2)C(C)(C)C)cc1` [Example 76, 2-{2-[4-(4-{3-[4-cyano-3-(trifluoromethyl)phenyl]-5,5-dimethyl-4-oxo-2-sulfanylideneimidazolidin-1-yl}-2-fluorophenyl)phenoxy]ethoxy}ethyl N-[(2S)-1-[(2S,4R )-4-hydroxy-2-({[4-(4-methy1-1,3-thiazol-5-yl)phenyl]methyl}carbamoyl)pyrrolidin-l-yl]-3,3-dimethyl-1-oxobutan-2-yl]carhamate], the DC50 is less than 0.05 µM. The Dmax under setting [1] is 51 to 70%.
The matching figures for `Cc1ncsc1-c1ccc(CNC(=O)[C@@H]2C[C@@H](O)CN2C(=O)[C@H](C(C)C)N2Cc3ccccc3C2=O)c(OCCOCCOCCOc2ccc(N3C(=S)N(c4ccc(C#N)c(C(F)(F)F)c4)C(=O)C3(C)C)cc2)c1` [Example 82, (2S,4R)—N-(2-(2-(2-(2-(4-(3-(4-cyano-3-(trifluoromethyl)phenyl)-5,5-dimethyl-4-oxo-2-thioxoimidazolidin-1-yl)phenoxy)ethoxy)ethoxy)ethoxy)-4-(4-methylthiazol-5-yl)benzyl)-4-hydroxy-1-((S)-3-methyl-2-(1-oxoisoindolin-2-yl)butanoyl)pyrrolidine-2-carboxamide]: 0.051 to 0.5 µM and 51 to 70%.
The matching figures for `Cc1ncsc1-c1ccc(CNC(=O)[C@@H]2C[C@@H](O)CN2C(=O)[C@H](C(C)C)N2Cc3ccc(F)cc3C2=O)c(OCCOCCOCCOc2ccc(N3C(=S)N(c4ccc(C#N)c(C(F)(F)F)c4)C(=O)C3(C)C)cc2)c1` [Example 83, (2S,4R)-N-{[2-(2-{2-[2-(4-{3-[4-cyano-3-(trifluoromethyl)phenyl]-5,5-dimethyl-4-oxo-2-sulfanylideneimidazolidin-1-yl}phenoxy)ethoxy]ethoxy}ethoxy)-4-(4-methyl-1,3-thiazol-5-yl)phenyl]methyl}-1-[(2S)-2-(6-fluoro-1-oxo-2,3-dihydro-1H-isoindol-2-yl)-3-methylbutanoyl]-4-hydroxypyrrolidine-2-carboxamide]: 0.051 to 0.5 µM and 51 to 70%.
The matching figures for `Cc1ncsc1-c1ccc(CNC(=O)[C@@H]2C[C@@H](O)CN2C(=O)[C@H](C(C)C)N2Cc3cccc(C#N)c3C2=O)c(OCCOCCOCCOc2ccc(N3C(=S)N(c4ccc(C#N)c(C(F)(F)F)c4)C(=O)C3(C)C)cc2)c1` [Example 84]: 0.051 to 0.5 µM and 51 to 70%.
The molecule `Cc1ncsc1-c1ccc(CNC(=O)[C@@H]2C[C@@H](O)CN2C(=O)[C@H](C(C)C)N2Cc3ccccc3C2=O)c(OCCO[C@H](C)[C@@H](C)OCCOc2ccc(N3C(=S)N(c4ccc(C#N)c(C(F)(F)F)c4)C(=O)C3(C)C)cc2)c1` [Example 85, (2S,4R)-N-{[2-(2-{[(2R,3R)-3-[2-(4-{3-[4-cyano-3-(trifluoromethyl)phenyl]-5,5-dimethyl-4-oxo-2-sulfanylideneimidazolidin-1-yl}phenoxy)ethoxy]butan-2-yl]oxy}ethoxy)-4-(4-methyl-1,3-thiazol-5-yl)phenyl]methyl}-4-hydroxy-1-[(2S)-3-methyl-2-(1-oxo-2,3-dihydro-1H-isoindol-2-yl)butanoyl]pyrrolidine-2-carboxamide] gave a DC50 of more than 0.501 µM. Under setting [1], this molecule gave a Dmax of 51 to 70%.
Regarding `Cc1ncsc1-c1ccc(CNC(=O)[C@@H]2C[C@@H](O)CN2C(=O)[C@H](C(C)C)N2Cc3ccccc3C2=O)c(OCCCOCCOCCOc2ccc(N3C(=S)N(c4ccc(C#N)c(C(F)(F)F)c4)C(=O)C3(C)C)cc2)c1` [Example 205], the DC50 is more than 0.501 µM. Besides, under setting [2], the Dmax was less than 25%.
Molecule `Cc1ncsc1-c1ccc(CNC(=O)[C@@H]2C[C@@H](O)CN2C(=O)[C@H](C(C)C)N2Cc3ccccc3C2=O)c(OCCOCCOc2ccc(N3C(=S)N(c4ccc(C#N)c(C(F)(F)F)c4)C(=O)C3(C)C)cc2)c1` [Example 206] gave a DC50 of 0.051 to 0.5 µM. Also, the Dmax under setting [2] lay within 51 to 70%.
On the same counts, the results for `Cc1ncsc1-c1ccc(CNC(=O)[C@@H]2C[C@@H](O)CN2C(=O)[C@H](C(C)C)N2Cc3ccccc3C2=O)c(OCCCCOCCCCOCCCCOc2ccc(N3C(=S)N(c4ccc(C#N)c(C(F)(F)F)c4)C(=O)C3(C)C)cc2)c1` [Example 207] are 0.051 to 0.5 µM and 26 to 50%.
On the same counts, the results for `Cc1ncsc1-c1ccc(CNC(=O)[C@@H]2C[C@@H](O)CN2C(=O)[C@H](C(C)C)N2Cc3ccccc3C2=O)c(OCCOCCOCCOCCOc2ccc(N3C(=S)N(c4ccc(C#N)c(C(F)(F)F)c4)C(=O)C3(C)C)cc2)c1` [Example 210] are more than 0.501 µM and 26 to 50%.
On the same counts, the results for `Cc1ncsc1-c1ccc(CNC(=O)[C@@H]2C[C@@H](O)CN2C(=O)[C@H](C(C)C)N2Cc3ccccc3C2=O)c(OCCOCCOCCOCCOCCOc2ccc(N3C(=S)N(c4ccc(C#N)c(C(F)(F)F)c4)C(=O)C3(C)C)cc2)c1` [Example 211] are 0.051 to 0.5 µM and 26 to 50%.
With `Cc1ncsc1-c1ccc(CNC(=O)[C@@H]2C[C@@H](O)CN2C(=O)[C@@H](NC(=O)COCCOCCOCCOCCOCCOCCOc2ccc(N3C(=S)N(c4ccc(C#N)c(C(F)(F)F)c4)C(=O)C3(C)C)cc2)C(C)(C)C)cc1` [Example 212], the DC50 is more than 0.501 µM. The molecule further registered a Dmax under setting [2] of more than 71%.
On the same counts, the results for `Cc1ncsc1-c1ccc(CNC(=O)[C@@H]2C[C@@H](O)CN2C(=O)[C@H](C(C)C)N2Cc3ccccc3C2=O)c(OCCOCCOCCCOCCOCCOc2ccc(N3C(=S)N(c4ccc(C#N)c(C(F)(F)F)c4)C(=O)C3(C)C)cc2)c1` [Example 214] are 0.051 to 0.5 µM and 51 to 70%.
On to `Cc1ncsc1-c1ccc(CNC(=O)[C@@H]2C[C@@H](O)CN2C(=O)[C@H](C(C)C)N2Cc3ccccc3C2=O)c(OCCOCCOCCCCOCCOCCOc2ccc(N3C(=S)N(c4ccc(C#N)c(C(F)(F)F)c4)C(=O)C3(C)C)cc2)c1` [Example 215], for which the DC50 lay within 0.051 to 0.5 µM. Besides, under setting [2], the Dmax was 26 to 50%.
On the same counts, the results for `Cc1ncsc1-c1ccc(CNC(=O)[C@@H]2C[C@@H](O)CN2C(=O)[C@@H](NC(=O)COCCOCCOCCCOCCOCCOc2ccc(N3C(=S)N(c4ccc(C#N)c(C(F)(F)F)c4)C(=O)C3(C)C)cc2)C(C)(C)C)cc1` [Example 216] are 0.051 to 0.5 µM and 51 to 70%.
The matching figures for `Cc1ncsc1-c1ccc(CNC(=O)[C@@H]2C[C@@H](O)CN2C(=O)[C@@H](NC(=O)COCCOCCOCCCCOCCOCCOc2ccc(N3C(=S)N(c4ccc(C#N)c(C(F)(F)F)c4)C(=O)C3(C)C)cc2)C(C)(C)C)cc1` [Example 217]: less than 0.05 µM and 51 to 70%.
